Test results from ChEMBL document CHEMBL1126487, “Induction of reversible protein-linked DNA breaks in human osteogenic sarcoma cells by novel cytocidal colchicine derivatives which inhibit DNA topoisomerase II in vitro: Absence of cross-resistance in a colchicine-resistant sub-clone” (Bioorg Med Chem Lett, 1993).

Legend:
HOS = test: Effective concentration required to inhibit growth of sub clone Hos colR cells; type: functional, cell-based; settings: Homo sapiens
[1] = Toxicity against human Osteogenic sarcoma (Hos)cells; settings: read-out: LD50 (the source's name)

| Compound | EC50 (HOS) [µM] | CC50 [1] [µM] |
| --- | --- | --- |
| O=C(N[C@H]1CCc2cc(O)c(O)c(O)c2-c2ccc(=O)c(O)cc21)c1cc(O)c(O)c(O)c1 | 28 | 18 |
| O=C(N[C@H]1CCc2cc(O)c(O)c(O)c2-c2ccc(=O)c(O)cc21)C(F)(F)F | 26 | 14 |
